According to patent US20010039287A1, “AROMATIC SULFONE HYDROXAMIC ACID METALLOPROTEASE INHIBITOR” (priority 1997, published 2001):
Counter-ions that a name gives are not always drawn.

How the values were obtained:
Experiment in all cases: biochemical
recombinant human MMP-13 = recombinant human MMP-13 (Homo sapiens, UniProt P45452); details: Inhibition Table B; read-out: MMP-13 IC50
recombinant human MMP-1 = molecular target: T1, recombinant human MMP-1 (Homo sapiens, UniProt P03956); details: Inhibition Table B; read-out: MMP-1 IC50
T1 construct: made in house; host or cells: transfected HT-1080 cells (provided by Dr. Harold Welgus, Washington University)
T1 sequence (P03956 100-469): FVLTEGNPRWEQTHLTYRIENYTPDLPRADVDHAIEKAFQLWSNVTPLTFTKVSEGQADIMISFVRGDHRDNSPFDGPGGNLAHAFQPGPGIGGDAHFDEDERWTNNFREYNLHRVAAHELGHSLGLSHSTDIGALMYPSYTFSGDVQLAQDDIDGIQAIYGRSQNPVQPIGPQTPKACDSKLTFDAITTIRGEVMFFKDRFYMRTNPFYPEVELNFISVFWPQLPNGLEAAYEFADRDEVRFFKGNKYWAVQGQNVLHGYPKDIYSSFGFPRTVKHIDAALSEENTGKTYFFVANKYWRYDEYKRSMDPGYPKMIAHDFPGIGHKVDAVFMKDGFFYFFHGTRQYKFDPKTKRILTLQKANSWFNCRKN

recombinant human MMP-2 = molecular target: T2, recombinant human MMP-2 (Homo sapiens, UniProt P08253); details: Inhibition Table B; read-out: MMP-2 IC50
T2 sequence (P08253 110-660): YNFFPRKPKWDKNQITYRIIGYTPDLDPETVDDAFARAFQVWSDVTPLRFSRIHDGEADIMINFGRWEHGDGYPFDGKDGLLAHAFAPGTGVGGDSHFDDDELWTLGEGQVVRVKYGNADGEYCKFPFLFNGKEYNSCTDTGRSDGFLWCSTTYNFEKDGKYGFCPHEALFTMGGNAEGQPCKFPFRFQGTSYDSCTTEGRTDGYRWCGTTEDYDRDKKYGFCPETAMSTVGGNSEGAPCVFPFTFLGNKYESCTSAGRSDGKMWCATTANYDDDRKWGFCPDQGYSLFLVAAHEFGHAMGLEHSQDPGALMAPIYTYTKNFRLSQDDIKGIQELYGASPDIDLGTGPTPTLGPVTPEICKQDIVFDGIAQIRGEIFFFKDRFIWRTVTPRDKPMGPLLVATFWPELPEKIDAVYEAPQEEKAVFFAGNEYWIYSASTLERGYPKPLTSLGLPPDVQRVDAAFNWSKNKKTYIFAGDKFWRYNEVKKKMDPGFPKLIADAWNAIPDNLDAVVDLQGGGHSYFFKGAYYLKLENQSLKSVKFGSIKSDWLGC

For NCCc1ccc(Oc2ccc(S(=O)(=O)C3(C(=O)NO)CCS(=O)(=O)CC3)cc2)cc1 [Example 54, 4-[[4-[4-(2-aminoethyl))-phenoxy]phenyl]sulfonyl]tetrahydro-N-hydroxy-2H-thiopyran-4-carboxamide 1,1-dioxide Monohydrochloride], the IC50 (recombinant human MMP-13) was 120 nM, the IC50 (recombinant human MMP-1) was > 10000 nM and the IC50 (recombinant human MMP-2) was 60 nM.
O=C(NOC1CCCCO1)C1(S(=O)(=O)c2ccc(F)cc2)CCOCC1 (stereo not drawn) [Example 55, 4-[(4-fluorophenyl)-sulfonyl]tetrahydro-N-[(tetrahydro-2H-pyran-2-yl)oxy]-2H-pyran-4-carboxamide] gave an IC50 (recombinant human MMP-13) of 0.3 nM, an IC50 (recombinant human MMP-1) of 1200 nM and an IC50 (recombinant human MMP-2) of 0.1 nM.
O=C(NO)C1(S(=O)(=O)c2ccc(Oc3ccc(F)c(F)c3)cc2)CCOCC1 [Example 56, 4-[[4-(3,4-difluorophenoxy)-phenyl]sulfonyl]tetrahydro-N-hydroxy-2H-pyran-4-carboxamide] was tested, and the IC50 (recombinant human MMP-13) was 0.15 nM, the IC50 (recombinant human MMP-1) was 1500 nM and the IC50 (recombinant human MMP-2) was < 0.1 nM.
With O=C(NO)C1(S(=O)(=O)c2ccc(Oc3ccc(I)cc3)cc2)CCOCC1 [Example 57, Tetrahydro-N-hydroxy-4-[[4-(4-iodophenoxy)phenyl]sulfonyl]-2H-pyran-4-carboxamide] the IC50 (recombinant human MMP-13) was 0.2 nM, the IC50 (recombinant human MMP-1) was 1200 nM and the IC50 (recombinant human MMP-2) was < 0.1 nM.
O=C(NO)C1(S(=O)(=O)c2ccc(Oc3cc(F)c(F)cc3F)cc2)CCOCC1 [Example 58, Tetrahydro-N-hydroxy-4-[[4-(2,4,5-trifluorophenoxy)phenyl]-sulfonyl]-2H-pyran-4-carboxamide] was tested, and the IC50 (recombinant human MMP-13) was 30 nM, the IC50 (recombinant human MMP-1) was > 10000 nM and the IC50 (recombinant human MMP-2) was 83 nM.
O=C(NO)C1(S(=O)(=O)c2ccc(Sc3ccc(Cl)c(Cl)c3)cc2)CCOCC1 [Example 60] was tested, and the IC50 (recombinant human MMP-13) was 147 nM, the IC50 (recombinant human MMP-1) was > 10000 nM and the IC50 (recombinant human MMP-2) was 64 nM.
With Nc1cc(C(F)(F)F)ccc1Sc1ccc(S(=O)(=O)C2(C(=O)NO)CCOCC2)cc1 [Example 61, 4—[[4-[[2-amino-4-(trifluoromethyl)phenyl]thio]phenyl]-sulfonyl]-tetrahydro-N-hydroxy-2H-pyran-4-carboxamide, Monohydrochloride] the IC50 (recombinant human MMP-13) was 2000 nM, the IC50 (recombinant human MMP-1) was > 10000 nM and the IC50 (recombinant human MMP-2) was 1500 nM.
In the case of COc1ccc(Oc2ccc(S(=O)(=O)C3(C(=O)NO)CCOCC3)cc2)cc1 [Example 64], the IC50 (recombinant human MMP-13) is reported as 0.15 nM, the IC50 (recombinant human MMP-1) is reported as 1470 nM and the IC50 (recombinant human MMP-2) is reported as < 0.1 nM.
With O=C(NO)C1(S(=O)(=O)c2ccc(F)cc2)CCOCC1 [Example 66, 4-[(4-fluorophenyl)-sulfonyl]tetrahydro-N-hydroxy-2H-pyran-4-carboxamide] the IC50 (recombinant human MMP-13) was 36000 nM, the IC50 (recombinant human MMP-1) was > 10000 nM and the IC50 (recombinant human MMP-2) was 4590 nM.
O=C(NO)C1(S(=O)(=O)c2ccc(OC3CCNCC3)cc2)CCOCC1 [Example 67, tetrahydro-N-hydroxy-4-[[4-(4-piperidinyloxy)phenyllsulfonyl]-2H-pyran-4-carboxamide, Monohydrochloride] gave an IC50 (recombinant human MMP-13) of 268 nM, an IC50 (recombinant human MMP-1) of 1600 nM and an IC50 (recombinant human MMP-2) of 239 nM.
O=C(NO)C1(S(=O)(=O)c2ccc(Oc3ccc(OCc4ccccc4)cc3)cc2)CCOCC1 [Example 72, tetrahydro-N-hydroxy-4-[[4-[4-[(phenylmethyl)oxy]phenoxy]-phenyl]-sulfonyl]-2H-pyran-4-carboxamide] was tested, and the IC50 (recombinant human MMP-13) was 0.3 nM, the IC50 (recombinant human MMP-1) was 2100 nM and the IC50 (recombinant human MMP-2) was < 0.1 nM.
O=C(CS(=O)(=O)c1ccc(NC(=O)OCc2ccccc2)cc1)NO [Example 74, phenylmethyl-[4-[[2-(hydroxyamino)-2-oxoethyl]-sulfonyl]-phenyl]carbamate] was tested, and the IC50 (recombinant human MMP-13) was 480 nM, the IC50 (recombinant human MMP-1) was > 10000 nM and the IC50 (recombinant human MMP-2) was 130 nM.
In the case of O=C(CS(=O)(=O)c1ccc(NC(=O)Nc2ccccc2)cc1)NO [Example 75, N—hydroxy-2-[[4-[[(phenylamino)carbonyl]amino]-phenyl]sulfonyl]acetamide], the IC50 (recombinant human MMP-13) is reported as 900 nM, the IC50 (recombinant human MMP-1) is reported as > 10000 nM and the IC50 (recombinant human MMP-2) is reported as 60 nM.
Compound C=CCN1CCC(C(=O)NO)(S(=O)(=O)c2ccc(Oc3ccc(Cl)c(C)c3)cc2)CC1 [Example 82, 4-[[4-(4-chloro-3-methylphenoxy)phenyljsulfonyl]-N-hydroxy-1-(2-propenyl)-4-piperidinecarboxamide, Monohydrochloride] has an IC50 (recombinant human MMP-13) of 0.3 nM, an IC50 (recombinant human MMP-1) of 4000 nM and an IC50 (recombinant human MMP-2) of 0.1 nM.
Work on O=C(NO)C1(S(=O)(=O)c2ccc(Oc3ccc(F)c(Cl)c3)cc2)CCNCC1 [Example 84, 4-[[4-(3-chloro-4-fluorophenoxy)phenyl]sulfonyl]-N-hydroxy-4-piperidine Carboxamide, Monohydrochloride] yielded an IC50 (recombinant human MMP-13) of 2.5 nM, an IC50 (recombinant human MMP-1) of 8000 nM and an IC50 (recombinant human MMP-2) of 1.8 nM.
In the case of O=C(NO)C1(S(=O)(=O)c2ccc(Sc3ccccc3)cc2)CCNCC1 [Example 86, 4-[[4-(phenylthio)-phenyl]-sulfonyl]-N-hydroxy-4-piperidine-carboxamide, Monohydrochloride], the IC50 (recombinant human MMP-13) is reported as 3.5 nM, the IC50 (recombinant human MMP-1) is reported as > 10000 nM and the IC50 (recombinant human MMP-2) is reported as 2.5 nM.
For CC(C)NC(=O)N1CCC(C(=O)NO)(S(=O)(=O)c2ccc(Oc3ccc(Cl)cc3)cc2)CC1 [Example 90, 4-[[4-(4-chlorophenoxy)-phenyl]sulfonyl]-N^4-hydroxy-N^1-(1-methylethyl)-1,4-piperidine Dicarboxamide], the IC50 (recombinant human MMP-13) was 0.1 nM, the IC50 (recombinant human MMP-1) was 1200 nM and the IC50 (recombinant human MMP-2) was 0.1 nM.
For CN(c1ccccc1)c1ccc(S(=O)(=O)C2(C(=O)NO)CCNCC2)cc1 [Example 92, N-hydroxy-4-[[4-(methylphenylamino)phenyl]sulfonyl]-4-piperidinecarboxamide, Monohydrochloride], the IC50 (recombinant human MMP-13) was 2430 nM, the IC50 (recombinant human MMP-1) was > 10000 nM and the IC50 (recombinant human MMP-2) was 1800 nM.
Cc1ccc(Oc2ccc(S(=O)(=O)C3(C(=O)NO)CCOCC3)cc2)cn1 [Example 97, Tetrahydro-N-hydroxy-4-[[4-[(6-methyl-3-pyridinyl)oxy]phenyl]-sulfonyl]-2H-pyran-4-carboxamide, Monohydrochloride] was tested, and the IC50 (recombinant human MMP-13) was 16.7 nM, the IC50 (recombinant human MMP-1) was 4000 nM and the IC50 (recombinant human MMP-2) was 8.2 nM.
In the case of Cc1cccc(Oc2ccc(S(=O)(=O)C3(C(=O)NO)CCOCC3)cc2)n1 [Example 98, Tetrahydro-N-hydroxy-4-[[4-[(6-methyl-2—pyridinyl)oxy]phenyl]-sulfonyl]-2H-pyran-4-carboxamide], the IC50 (recombinant human MMP-13) is reported as 23.4 nM, the IC50 (recombinant human MMP-1) is reported as > 10000 nM and the IC50 (recombinant human MMP-2) is reported as 37 nM.
In the case of COC(=O)CCc1ccc(Oc2ccc(S(=O)(=O)C3(C(=O)NO)CCOCC3)cc2)cc1 [Example 102, methyl 4-[4-[(tetrahydro-4-[(hydroxyamino)carbonyl]-2H-pyran-4-yl]sulfonyl]-phenoxy]benzenepropanoate], the IC50 (recombinant human MMP-13) is reported as 0.2 nM, the IC50 (recombinant human MMP-1) is reported as 2000 nM and the IC50 (recombinant human MMP-2) is reported as < 0.1 nM.
For C#CCN1CCC(Oc2ccc(S(=O)(=O)C3(C(=O)NO)CCOCC3)cc2)CC1 [Example 106, Tetrahydro-N-hydroxy-4-[[4-[[1-(2-propynyl)-4-piperidinyl]-oxy]phenyl]sulfonyl]-2H-pyran-4-carboxamide, Monohydrochloride], the IC50 (recombinant human MMP-13) was 12.1 nM, the IC50 (recombinant human MMP-1) was > 10000 nM and the IC50 (recombinant human MMP-2) was 27.1 nM.
For CC(=O)N1CCC(Oc2ccc(S(=O)(=O)C3(C(=O)NO)CCOCC3)cc2)CC1 [Example 107, 4-[[4-[(1-acetyl-4-piperidinyl)oxy]phenyl]-sulfonyl]tetrahydro-N-hydroxy-2H-pyran-4-carboxamide], the IC50 (recombinant human MMP-13) was 6 nM, the IC50 (recombinant human MMP-1) was > 10000 nM and the IC50 (recombinant human MMP-2) was 12.1 nM.
With O=C(NO)C1(S(=O)(=O)c2ccc(Oc3ccc(F)c(Cl)c3)cc2)CCOCC1 [Example 108, 4-[[4-(3-chloro-4-fluorophenoxy)phenyl]sulfonyl]-tetrahydro-N-hydroxy-2H-pyran-4-carboxamide] the IC50 (recombinant human MMP-13) was 0.4 nM, the IC50 (recombinant human MMP-1) was 2000 nM and the IC50 (recombinant human MMP-2) was 0.4 nM.
Work on CC(=O)N1CCN(c2ccc(Oc3ccc(S(=O)(=O)C4(C(=O)NO)CCSCC4)cc3)cc2)CC1 [Example 112] yielded an IC50 (recombinant human MMP-13) of 3.2 nM, an IC50 (recombinant human MMP-1) of 1000 nM and an IC50 (recombinant human MMP-2) of 7 nM.
In the case of O=C(NO)C1(S(=O)(=O)c2ccc(Sc3ccccc3)cc2)CC[S+]([O-])CC1 (stereo not drawn) [Example 113], the IC50 (recombinant human MMP-13) is reported as 4 nM, the IC50 (recombinant human MMP-1) is reported as > 10000 nM and the IC50 (recombinant human MMP-2) is reported as 0.9 nM.
Nc1ccc(Sc2ccc(S(=O)(=O)C3(C(=O)NO)CCOCC3)cc2)cc1 [Example 120, 4-[[4-[(4-aminophenyl)thio]phenyl]-sulfonyl]tetrahydro-N-hydroxy-2H-pyran-4-carboxamide] showed an IC50 (recombinant human MMP-13) of 0.4 nM, an IC50 (recombinant human MMP-1) of 4000 nM and an IC50 (recombinant human MMP-2) of 0.4 nM.
For Cc1nc2cc(Oc3ccc(S(=O)(=O)C4(C(=O)NO)CCOCC4)cc3)ccc2s1 [Example 121, tetrahydro-N-hydroxy-4-[[4-[(2-methyl-5-benzothiazolyl)-oxy]phenyl]sulfonyl]-2H-pyran-4-carboxamide], the IC50 (recombinant human MMP-13) was 0.2 nM, the IC50 (recombinant human MMP-1) was 1200 nM and the IC50 (recombinant human MMP-2) was < 0.1 nM.
